Measured values as given in PubChem BioAssay (NCI).
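Grown in 96-well plates, cells were treated for 48 hours with each compound at five concentrations. Insufficient inhibition: endpoint recorded as highest concentration tested. GI50 marks 50% less growth. Definition used: TGI = concentration required for complete inhibition of growth.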

Experiments:
Assay in all cases: NCI anticancer screen, dose series, 48 h
NCI/ADR-RES ovarian = tested on: NCI/ADR-RES ovarian
PC-3 prostate = tested on: PC-3 prostate
OVCAR-8 ovarian = tested on: OVCAR-8 ovarian
MDA-MB-435 = tested on: MDA-MB-435
M14 melanoma = tested on: M14 melanoma
ACHN renal = tested on: ACHN renal
HCC-2998 colon = tested on: HCC-2998 colon
SF-268 CNS = tested on: SF-268 CNS
HL-60(TB) leukemia = tested on: HL-60(TB) leukemia
EKVX NSCLC = tested on: EKVX NSCLC
LOX IMVI melanoma = tested on: LOX IMVI melanoma
MDA-MB-231 breast = tested on: MDA-MB-231 breast
KM12 colon = tested on: KM12 colon
OVCAR-5 ovarian = tested on: OVCAR-5 ovarian
UO-31 renal = tested on: UO-31 renal
TK-10 renal = tested on: TK-10 renal
MCF7 breast = tested on: MCF7 breast
COLO 205 colon = tested on: COLO 205 colon
BT-549 breast = tested on: BT-549 breast
UACC-257 melanoma = tested on: UACC-257 melanoma
SF-539 CNS = tested on: SF-539 CNS
K-562 leukemia = tested on: K-562 leukemia
MALME-3M melanoma = tested on: MALME-3M melanoma
NCI-H522 lung = tested on: NCI-H522 lung
T-47D breast = tested on: T-47D breast
HCT-15 colon = tested on: HCT-15 colon
786-0 renal = tested on: 786-0 renal
SF-295 CNS = tested on: SF-295 CNS
SW-620 colon = tested on: SW-620 colon
SN12C renal = tested on: SN12C renal
OVCAR-4 ovarian = tested on: OVCAR-4 ovarian
U251 CNS = tested on: U251 CNS
HOP-92 NSCLC = tested on: HOP-92 NSCLC
OVCAR-3 ovarian = tested on: OVCAR-3 ovarian
RXF 393 renal = tested on: RXF 393 renal
HCT-116 colon = tested on: HCT-116 colon
MOLT-4 leukemia = tested on: MOLT-4 leukemia
IGROV1 ovarian = tested on: IGROV1 ovarian
SK-MEL-2 melanoma = tested on: SK-MEL-2 melanoma
HS 578T breast = tested on: HS 578T breast
A549 NSCLC = tested on: A549 NSCLC
SK-MEL-5 melanoma = tested on: SK-MEL-5 melanoma
DU-145 prostate = tested on: DU-145 prostate
NCI-H460 lung = tested on: NCI-H460 lung
SK-OV-3 ovarian = tested on: SK-OV-3 ovarian
A498 renal = tested on: A498 renal
UACC-62 melanoma = tested on: UACC-62 melanoma
SK-MEL-28 melanoma = tested on: SK-MEL-28 melanoma
NCI-H226 lung = tested on: NCI-H226 lung
NCI-H23 lung = tested on: NCI-H23 lung
HOP-62 NSCLC = tested on: HOP-62 NSCLC
SNB-75 CNS = tested on: SNB-75 CNS
SNB-19 CNS = tested on: SNB-19 CNS
CCRF-CEM leukemia = tested on: CCRF-CEM leukemia
MDA-MB-468 breast = tested on: MDA-MB-468 breast
CAKI-1 renal = tested on: CAKI-1 renal
HT29 colon = tested on: HT29 colon
RPMI-8226 leukemia = tested on: RPMI-8226 leukemia
SR leukemia = tested on: SR leukemia

Compound: O=C(CNc1nc(-c2ccccc2)cs1)Nc1cccc([N+](=O)[O-])c1
- GI50 (NCI/ADR-RES ovarian): 175 nM
- TGI (NCI/ADR-RES ovarian): 381 nM
- GI50 (PC-3 prostate): 217 nM
- TGI (PC-3 prostate): 1860 nM
- GI50 (OVCAR-8 ovarian): 222 nM
- TGI (OVCAR-8 ovarian): 568 nM
- GI50 (MDA-MB-435): 170 nM
- TGI (MDA-MB-435): 319 nM
- GI50 (M14 melanoma): 177 nM
- TGI (M14 melanoma): 347 nM
- GI50 (ACHN renal): 200 nM
- TGI (ACHN renal): 436 nM
- GI50 (HCC-2998 colon): 175 nM
- TGI (HCC-2998 colon): 321 nM
- GI50 (SF-268 CNS): 257 nM
- TGI (SF-268 CNS): 725 nM
- GI50 (HL-60(TB) leukemia): 198 nM
- TGI (HL-60(TB) leukemia): 937 nM
- GI50 (EKVX NSCLC): 231 nM
- TGI (EKVX NSCLC): 580 nM
- GI50 (LOX IMVI melanoma): 106 nM
- TGI (LOX IMVI melanoma): 238 nM
- GI50 (MDA-MB-231 breast): 196 nM
- TGI (MDA-MB-231 breast): 375 nM
- GI50 (KM12 colon): 246 nM
- TGI (KM12 colon): 693 nM
- GI50 (OVCAR-5 ovarian): 203 nM
- TGI (OVCAR-5 ovarian): 413 nM
- GI50 (UO-31 renal): 169 nM
- TGI (UO-31 renal): 444 nM
- GI50 (TK-10 renal): 197 nM
- TGI (TK-10 renal): 660 nM
- GI50 (MCF7 breast): 166 nM
- TGI (MCF7 breast): 551 nM
- GI50 (COLO 205 colon): 193 nM
- TGI (COLO 205 colon): 367 nM
- GI50 (BT-549 breast): 167 nM
- TGI (BT-549 breast): 347 nM
- GI50 (UACC-257 melanoma): 256 nM
- TGI (UACC-257 melanoma): 826 nM
- GI50 (SF-539 CNS): 180 nM
- TGI (SF-539 CNS): 358 nM
- GI50 (K-562 leukemia): 223 nM
- TGI (K-562 leukemia): 11200 nM
- GI50 (MALME-3M melanoma): 172 nM
- TGI (MALME-3M melanoma): 314 nM
- GI50 (NCI-H522 lung): 129 nM
- TGI (NCI-H522 lung): 297 nM
- GI50 (T-47D breast): 218 nM
- TGI (T-47D breast): 632 nM
- GI50 (HCT-15 colon): 93 nM
- TGI (HCT-15 colon): 413 nM
- GI50 (786-0 renal): 253 nM
- TGI (786-0 renal): 663 nM
- GI50 (SF-295 CNS): 223 nM
- TGI (SF-295 CNS): 519 nM
- GI50 (SW-620 colon): 66.3 nM
- TGI (SW-620 colon): 914 nM
- GI50 (SN12C renal): 184 nM
- TGI (SN12C renal): 469 nM
- GI50 (OVCAR-4 ovarian): 223 nM
- TGI (OVCAR-4 ovarian): 511 nM
- GI50 (U251 CNS): 262 nM
- TGI (U251 CNS): 927 nM
- GI50 (HOP-92 NSCLC): 243 nM
- TGI (HOP-92 NSCLC): 660 nM
- GI50 (OVCAR-3 ovarian): 251 nM
- TGI (OVCAR-3 ovarian): 708 nM
- GI50 (RXF 393 renal): 128 nM
- TGI (RXF 393 renal): 269 nM
- GI50 (HCT-116 colon): 188 nM
- TGI (HCT-116 colon): 590 nM
- GI50 (MOLT-4 leukemia): 117 nM
- TGI (MOLT-4 leukemia): 2530 nM
- GI50 (IGROV1 ovarian): 108 nM
- TGI (IGROV1 ovarian): 459 nM
- GI50 (SK-MEL-2 melanoma): 177 nM
- TGI (SK-MEL-2 melanoma): 323 nM
- GI50 (HS 578T breast): 230 nM
- TGI (HS 578T breast): 739 nM
- GI50 (A549 NSCLC): 323 nM
- TGI (A549 NSCLC): 1390 nM
- GI50 (SK-MEL-5 melanoma): 166 nM
- TGI (SK-MEL-5 melanoma): 302 nM
- GI50 (DU-145 prostate): 264 nM
- TGI (DU-145 prostate): 730 nM
- GI50 (NCI-H460 lung): 136 nM
- TGI (NCI-H460 lung): 616 nM
- GI50 (SK-OV-3 ovarian): 128 nM
- TGI (SK-OV-3 ovarian): 335 nM
- GI50 (A498 renal): 223 nM
- TGI (A498 renal): 555 nM
- GI50 (UACC-62 melanoma): 119 nM
- TGI (UACC-62 melanoma): 245 nM
- GI50 (SK-MEL-28 melanoma): 199 nM
- TGI (SK-MEL-28 melanoma): 379 nM
- GI50 (NCI-H226 lung): 188 nM
- TGI (NCI-H226 lung): 444 nM
- GI50 (NCI-H23 lung): 72.4 nM
- TGI (NCI-H23 lung): 202 nM
- GI50 (HOP-62 NSCLC): 216 nM
- TGI (HOP-62 NSCLC): 469 nM
- GI50 (SNB-75 CNS): 136 nM
- TGI (SNB-75 CNS): 320 nM
- GI50 (SNB-19 CNS): 206 nM
- TGI (SNB-19 CNS): 500 nM
- GI50 (CCRF-CEM leukemia): 58.7 nM
- TGI (CCRF-CEM leukemia): 4520 nM
- GI50 (MDA-MB-468 breast): 185 nM
- TGI (MDA-MB-468 breast): 358 nM
- GI50 (CAKI-1 renal): 182 nM
- TGI (CAKI-1 renal): 558 nM
- GI50 (HT29 colon): 142 nM
- TGI (HT29 colon): 357 nM
- GI50 (RPMI-8226 leukemia): 291 nM
- TGI (RPMI-8226 leukemia): 1230 nM
- GI50 (SR leukemia): 175 nM
- TGI (SR leukemia): > 34900 nM
